Holding throughout (details): individual compound of natural origin
A short description of assay [1]: Determination of antioxidant activity (DPPH method). In kind it is biochemical. As for the experimental part:
DPPH (1,1-diphenyl-2-picrylhydrazyl) is a chromogenic radical and thus, can be used to directly confirm the radical scavenging activity of the samples. The samples were dissolved in 4 ml of distilled water or solvent (methanol) and then, mixed well with 1 ml of 100 μM DPPH. Subsequently, the samples were incubated at room temperature for 30 minutes. The absorbance of the remaining DPPH was measured at 517 nm. As a blank of the present experiment, distilled water or solvent was used, and as a control, an experimental group composed only of DPPH in distilled water or solvent without the sample was used. Further, vitamin C was used as a positive control.
(In general: DPPH is a stable violet radical that fades when it is reduced.)

Assay [2] concerns NF-kB luciferase activity. The assay is described as follows: Anti-inflammatory effect: inhibition test of NF-kB luciferase activity (TNF-alpha treated fibroblasts). The assay is classed as cell-based, Human fibroblasts and mouse fibroblasts, NIH3T3. Set-up: key: −: No effect; +: Weak effect; ++: Moderate effect; +++: Strong effect; ++++: Very strong effect. How it is done: The anti-inflammatory effect was determined by the inhibition test of NF-kB luciferase activity. Human fibroblasts and mouse fibroblasts, NIH3T3 were transfected with NF-kB reporter DNA using SuperFect to induce transformation. At 24 hrs after transformation, the samples were treated with TNF-alpha (10 ng/ml). After 16 hrs, the cells were collected, and luminescence measurements were made […] using a Luminometer (Berthold, Germany).

For another assay, the system named is Human keratinocytes. Description: Wound-healing effect: cell migration assay. In kind it is cell-based. Set-up: key: −: No effect; +: Weak effect; ++: Moderate effect; +++: Strong effect; ++++: Very strong effect. How it is done:
The wound-healing effect was determined by a cell migration assay. Human keratinocytes were confluently cultured in keratinocyte-SFM media and then, treated with […] mitomycin C (Sigma Chemical) to inhibit cell growth for the measurement of cell migration. The confluent cell monolayer was scratched using a yellow pipette tip to create a cell-free region and then, the cell debris was washed with PBS. After the treatment, the samples were cultured in keratinocyte-SFM media for 48 hrs to observe the effect on cell migration (Cecile A et. al., Molecular Biology of the Cell, 2002; 13: 3845-3858).

Assay [3] in a line: Moisturizing effect: transepidermal water loss (Tewameter TM210). In kind it is in vivo, human subjects. Set-up: key: −: No effect; +: Weak effect; ++: Moderate effect; +++: Strong effect; ++++: Very strong effect. How it is done: The transepidermal water loss was measured using a Tewameter TM210 (Germany). The measurement was performed twice, before the treatment and at 2 weeks after the treatment, and the results were statistically compared. The measurement was performed in a temperature/humidity controlled room (no air flow, no light, at a temperature of 22° C. and relative humidity of 40%). The measurement was performed in the abdomen of thirty subjects.

For `C=CCc1ccc(O)c(-c2cc(CC=C)ccc2O)c1` [Magnolol], the Antioxidant effect entry in assay [1] is on record as “+”. Besides, the Anti-inflammatory effect entry in assay [2] is “+”. For the same molecule, the Wound-healing effect result in the assay with Human keratinocytes is recorded as “+”. Further, the Moisturizing effect result in assay [3] is “−”.

Take `CC1(C)[C@@H](O[C@H]2O[C@H](C(=O)O)[C@@H](O)[C@H](O)[C@H]2O[C@@H]2O[C@H](C(=O)O)[C@@H](O)[C@H](O)[C@H]2O)CC[C@]2(C)[C@H]3C(=O)C=C4[C@@H]5C[C@@](C)(C(=O)O)CC[C@]5(C)CC[C@@]4(C)[C@]3(C)CC[C@@H]12` [Glycyrrhizin]: in assay [1], the Antioxidant effect entry was “++”. The Anti-inflammatory effect entry in assay [2] is recorded as “++”. The Wound-healing effect result with Human keratinocytes is reported as “++”. The Moisturizing effect entry in assay [3] is “++”.

For the molecule `COC1=C(OC)C(=O)C(C/C=C(\C)CC/C=C(\C)CC/C=C(\C)CC/C=C(\C)CC/C=C(\C)CC/C=C(\C)CC/C=C(\C)CC/C=C(\C)CC/C=C(\C)CCC=C(C)C)=C(C)C1=O` [Coenzyme Q10], the Antioxidant effect result in assay [1] is given as “+”. Besides, the Anti-inflammatory effect entry in assay [2] was “−”. Moreover, the Wound-healing effect entry in the assay on Human keratinocytes was “+”. Moreover, the Moisturizing effect entry in assay [3] is on record as “+”.

As for `O=C(O)/C=C/c1ccc(O)c(O)c1` [Caffeic acid], the Antioxidant effect result in assay [1] is listed as “+”. Moreover, the Anti-inflammatory effect entry in assay [2] is recorded as “+”. In the assay on Human keratinocytes, the Wound-healing effect result is reported as “+”. For the same molecule, in assay [3], the Moisturizing effect result is recorded as “+”.

For `OCCc1ccc(O)c(O)c1` [Hydroxytyrosol], the Anti-inflammatory effect entry in assay [2] is “+”. In addition, the Wound-healing effect entry with Human keratinocytes is recorded as “+”. Besides, in assay [3], the Moisturizing effect result is “+”.

With `CCCCCCCC/C=C/CCCCCCCC(=O)O` [Elaidic acid], the Antioxidant effect result in assay [1] is given as “+”. For the same molecule, the Anti-inflammatory effect result in assay [2] is listed as “+”. Further, the Wound-healing effect result in the assay on Human keratinocytes was “+”. The Moisturizing effect result in assay [3] is “−”.

For `O=C(/C=C/c1ccc(O)c(O)c1)O[C@H](Cc1ccc(O)c(O)c1)C(=O)O` [Rosmarinic acid], the Antioxidant effect result in assay [1] is recorded as “++”. Also, in assay [2], the Anti-inflammatory effect entry was “++”. Further, the Wound-healing effect entry in the assay with Human keratinocytes is “++”. In assay [3], the Moisturizing effect entry is “++”.

Consider `C[C@@H]1O[C@@H](OC[C@H]2O[C@@H](Oc3c(-c4ccc(O)c(O)c4)oc4cc(O)cc(O)c4c3=O)[C@H](O)[C@@H](O)[C@@H]2O)[C@H](O)[C@H](O)[C@H]1O` [Rutin], for which the Anti-inflammatory effect result in assay [2] is listed as “+”. In the assay with Human keratinocytes, the Wound-healing effect result is “+”. The Moisturizing effect entry in assay [3] is recorded as “+”.

On to `Cc1c(C)c2c(c(C)c1O)CC[C@@](C)(CCC[C@H](C)CCC[C@H](C)CCCC(C)C)O2` [alpha-Tocopherol], for which, in assay [1], the Antioxidant effect entry was “+”. For the same molecule, in assay [2], the Anti-inflammatory effect entry is “+”. For the same molecule, the Wound-healing effect result with Human keratinocytes is “++”.

`OCc1c[nH]c2ccccc12` [Indole-3-carbinol]: the Antioxidant effect result in assay [1] is “+”. In addition, in assay [2], the Anti-inflammatory effect result was “+”. The Wound-healing effect result with Human keratinocytes is “+”. Besides, the Moisturizing effect result in assay [3] is “−”.

Regarding `O=P(O)(O)O[C@H]1[C@H](OP(=O)(O)O)[C@@H](OP(=O)(O)O)[C@H](OP(=O)(O)O)[C@@H](OP(=O)(O)O)[C@H]1OP(=O)(O)O` [Phytic acid], the Antioxidant effect entry in assay [1] is recorded as “+”. Further, the Anti-inflammatory effect result in assay [2] is listed as “+”. Also, in the assay on Human keratinocytes, the Wound-healing effect result is “++”. For the same molecule, the Moisturizing effect result in assay [3] is “−”.

For the molecule `C=CCc1ccc(O)c(-c2ccc(O)c(CC=C)c2)c1` [Honokiol], in assay [1], the Antioxidant effect result is “+”. Further, the Anti-inflammatory effect result in assay [2] is reported as “+”. Besides, the Wound-healing effect result with Human keratinocytes is “++”. Further, the Moisturizing effect entry in assay [3] is given as “−”.

As for `CC(C)=CCC/C(C)=C/CO` [Geraniol], the Anti-inflammatory effect result in assay [2] is on record as “++”. Moreover, the Wound-healing effect result in the assay with Human keratinocytes is on record as “+”. Besides, in assay [3], the Moisturizing effect result was “−”.

On to `O=C1O[C@H]([C@@H](O)CO)C(O)=C1O` [Ascorbic acid], for which, in assay [1], the Antioxidant effect result is listed as “+”. Moreover, the Anti-inflammatory effect entry in assay [2] is “+”. In the assay with Human keratinocytes, the Wound-healing effect result is “++”. Further, in assay [3], the Moisturizing effect entry is reported as “−”.

In the case of `CC1=C(/C=C/C(C)=C/C=C/C(C)=C/CO)C(C)(C)CCC1` [Retinol], the Antioxidant effect result in assay [1] is “+”. In addition, the Anti-inflammatory effect result in assay [2] was “+”. In the assay with Human keratinocytes, the Wound-healing effect result is reported as “+”. In addition, the Moisturizing effect result in assay [3] is recorded as “−”.

For the molecule `CCc1ccc(C)c2ccc(C)c-2c1` [Chamazulene], the Antioxidant effect entry in assay [1] is given as “++”. In assay [2], the Anti-inflammatory effect entry was “++”. In addition, in the assay with Human keratinocytes, the Wound-healing effect entry is listed as “++”. For the same molecule, the Moisturizing effect entry in assay [3] is listed as “++”.

As to `C[C@@H]1CC[C@@]2(OC1)O[C@H]1C[C@H]3[C@@H]4CC=C5C[C@@H](O)CC[C@]5(C)[C@H]4CC[C@]3(C)[C@H]1[C@@H]2C` [Diosgenin], in assay [1], the Antioxidant effect result is on record as “−”. Moreover, the Anti-inflammatory effect result in assay [2] is given as “+”. Moreover, the Wound-healing effect result with Human keratinocytes is given as “++”. Further, the Moisturizing effect result in assay [3] is reported as “+”.

With `O=c1cc(-c2ccccc2)oc2cc(O)c(O)c(O)c12` [Baicalein], in assay [1], the Antioxidant effect result was “++”. The Anti-inflammatory effect entry in assay [2] is on record as “++”. The Wound-healing effect entry in the assay with Human keratinocytes is listed as “++”. Moreover, the Moisturizing effect entry in assay [3] is on record as “++”.

Consider `O=c1ccc2ccccc2o1` [Coumarin], for which the Antioxidant effect result in assay [1] is recorded as “+”. For the same molecule, the Anti-inflammatory effect result in assay [2] is recorded as “++”. Also, in the assay on Human keratinocytes, the Wound-healing effect result is given as “+”. Moreover, the Moisturizing effect entry in assay [3] is “−”.

Regarding `Oc1cc(O)cc(/C=C/c2ccccc2)c1` [Pinosylvin], in assay [1], the Antioxidant effect result is on record as “+”. Besides, the Anti-inflammatory effect result in assay [2] is reported as “+”. Besides, the Wound-healing effect result in the assay with Human keratinocytes is given as “++”. The Moisturizing effect entry in assay [3] is given as “−”.

`CC1=C(O)C(=O)C(C)O1` (stereo not shown) [Furaneol]: the Anti-inflammatory effect entry in assay [2] was “+”. In addition, in the assay on Human keratinocytes, the Wound-healing effect result is given as “+”. Further, the Moisturizing effect entry in assay [3] was “+”.

Take `CC/C=C\C/C=C\C/C=C\CCCCCCCC(=O)O` [Linolenic acid]: in assay [2], the Anti-inflammatory effect result was “++”. Further, the Wound-healing effect entry in the assay on Human keratinocytes is listed as “++”. Also, in assay [3], the Moisturizing effect entry is “++”.

As to `Cc1cc(O)c2c(c1)C(=O)c1cc(O)cc(O)c1C2=O` [Emodin], the Antioxidant effect entry in assay [1] was “++”. For the same molecule, the Anti-inflammatory effect result in assay [2] was “++”. In the assay on Human keratinocytes, the Wound-healing effect entry is “++”. The Moisturizing effect entry in assay [3] was “++”.

As to `CC(C)=CCC[C@](C)(O[C@@H]1O[C@H](CO[C@@H]2O[C@H](CO)[C@@H](O)[C@H](O)[C@H]2O)[C@@H](O)[C@H](O)[C@H]1O)[C@H]1CC[C@]2(C)[C@@H]1[C@H](O)C[C@@H]1[C@@]3(C)CC[C@H](O[C@@H]4O[C@H](CO)[C@@H](O)[C@H](O)[C@H]4O[C@@H]4O[C@H](CO)[C@@H](O)[C@H](O)[C@H]4O)C(C)(C)[C@@H]3CC[C@]12C` [Ginsenoside Rb1], the Antioxidant effect entry in assay [1] is recorded as “−”. For the same molecule, the Anti-inflammatory effect entry in assay [2] was “+”. The Wound-healing effect result in the assay on Human keratinocytes is listed as “+”. In addition, the Moisturizing effect entry in assay [3] was “+”.

Consider `CCCCCCCC/C=C\CCCCCCCC(=O)O` [Oleic acid], for which the Antioxidant effect result in assay [1] was “+”. Moreover, the Anti-inflammatory effect entry in assay [2] is “+”. The Wound-healing effect result in the assay with Human keratinocytes is given as “+”. In assay [3], the Moisturizing effect entry is listed as “+”.

With `O=c1c(O)c(-c2ccc(O)c(O)c2)oc2cc(O)cc(O)c12` [Quercetin], the Antioxidant effect entry in assay [1] is reported as “++”. Moreover, in assay [2], the Anti-inflammatory effect result is given as “++”. Besides, the Wound-healing effect result in the assay with Human keratinocytes was “++”. The Moisturizing effect entry in assay [3] is given as “++”.

As for `C[C@H]1[C@H](C)CC[C@]2(C(=O)O)CC[C@]3(C)C(=CC[C@@H]4[C@@]5(C)C[C@@H](O)[C@H](O)[C@@](C)(CO)[C@@H]5[C@H](O)C[C@]43C)[C@H]12` [Madecassic acid], the Anti-inflammatory effect result in assay [2] is “++”. For the same molecule, the Wound-healing effect entry in the assay on Human keratinocytes is on record as “++”. In assay [3], the Moisturizing effect result is given as “++”.

Turning to `O=C(O)CCCCC1CCSS1` (stereo not drawn) [alpha-lipoic acid], the Antioxidant effect result in assay [1] is on record as “+”. Besides, the Anti-inflammatory effect result in assay [2] was “+”. Besides, in the assay on Human keratinocytes, the Wound-healing effect entry was “++”. Besides, the Moisturizing effect result in assay [3] was “−”.

Turning to `O=C(O)c1cc(O)c(O)c(O)c1` [Garlic acid], in assay [1], the Antioxidant effect result is recorded as “+”. The Anti-inflammatory effect result in assay [2] was “+”. Moreover, the Wound-healing effect entry in the assay with Human keratinocytes was “+”. In assay [3], the Moisturizing effect result is given as “−”.

The record behind these values is US7994141B2, “Compositions comprising compounds of natural origin for damaged skin” (Biospectrum, Inc., priority 2006, dated 2011).
